Data: US11617733B2, “Bicyclic compound and use thereof for medical purposes” (ONO PHARMACEUTICAL CO., LTD., priority 2009, dated 2023)

How the values were obtained:
male dog (TOYO Beagle) = assay: Intraocular pressure lowering action in dog after ocular instillation; type: in vivo
Method: (2-1) Intraocular Pressure Lowering Action
To one eye of a male dog (TOYO Beagle) which had been sufficiently acclimated in advance was ocular-instilled 30 μL of each test compound (compound of Example 16 (35), compound of Example 16 (3) and compound of Example 16(25)) which had been adjusted with a base (containing citrate buffer pH 6.5, 0.5% polysorbate 80, 1% propylene glycol, 0.01% benzalkonium chloride) to 0.01% (w/v) or 0.001% (w/v), respectively. The other eye was not treated. As a positive control compound, latanoprost which is the known compound was used.
Thereafter, an ocular surface anesthetic (Benoxil eye drops 0.4%, Santen Pharmaceutical Co., Ltd.) was subjected to ocular instillation to locally anesthetize eyes, and an intraocular pressure of each test compound before ocular instillation and after 2, 4, 6, 8, and 24 hours from ocular instillation was measured. An intraocular pressure was measured using a pneumatic applanation flat tonometer (Model 30 Classic, REICHERT). An intraocular pressure lowering rate (%) was calculated by the following equation. Intraocular pressure lowering rate (%)=(intraocular pressure value before ocular instillation−intraocular pressure value at each point)/(intraocular pressure value before ocular instillation)×100 [Mathematic 1]

[1] = test system: male rabbit (NewZealandWhite); assay: Aqueous humor protein concentration in rabbit after ocular instillation; type: in vivo; details: ocular instillation 30 μL, 0.1% (w/v), 0-8 hours
Method: (2-2) Assessment of Ocular Stimulating Property and Aqueous Humor Protein Concentration
To one eye of a male rabbit (NewZealandWhite, 2.0 to 3.0 kg) was ocular-instilled 30 μL of the compound of Example 16 (35), the compound of Example 16 (3) and the compound of Example 16 (25) which had been adjusted to 0.1% (w/v) with a base (containing citrate buffer pH 6.5, 0.5% polysorbate 80, 1% propylene glycol, 0.01% benzalkonium chloride), respectively. Thereafter, an aqueous humor in anterior chamber after 0, 1, 2, 4, 6 and 8 hours from ocular instillation was collected, and a protein concentration in the humor was measured. As a comparative compound, the aforementioned methyl ester of the compound of Example 12 described in Patent Literature 2 (i.e. compound of Example 10 described in Patent Literature 2) (hereinafter, abbreviated as Comparative Compound B in some cases) was used.
Regarding any test compound, a dose until a dissolution limit (150 to 1000 μg/mL) was administered and action of each active body was assessed.

Row | Structure (SMILES) | Intraocular pressure lowering action compared with positive control latanoprost (in words) (male dog (TOYO Beagle)) | Action on protein concentration in aqueous humor (in words) [1]
1 | CC(C)OC(=O)CCC[C@H]1CC[C@@H]2[C@@H](/C=C/[C@@H](O)COc3cc(F)ccc3F)[C@H](O)C[C@@H]2OC1 [Example 16 (25), 2-Propanyl 4-{(3S, 5aR, 6R, 7R, 8aS)-6-[(1E, 3R)-4-(2,5-difluorophenoxy)-3-hydroxy-1-buten-1-yl]-7-hydroxyoctahydro-2H-cyclopenta[b]oxepin-3-yl}butanoate] | stronger intraocular pressure lowering action as compared with latanoprost | no action of raising a protein concentration in an aqueous humor
2 | CCOC(=O)CCC[C@H]1CC[C@@H]2[C@@H](/C=C/[C@@H](O)COc3ccccc3)[C@H](O)C[C@@H]2OC1 [Example 16 (35), Ethyl 4-{(3S, 5aR, 6R, 7R, 8aS)-7-hydroxy-6-[(1E, 3R)-3-hydroxy-4-phenoxy-1-buten-1-yl]octahydro-2H-cyclopenta[b]oxepin-3-yl}butanoate] | stronger intraocular pressure lowering action as compared with latanoprost | no action of raising a protein concentration in an aqueous humor
